3 compounds from paper PMC9667936, “Functional mapping of the 14-3-3 hub protein as a guide to design 14-3-3 molecular glues” (Chemical Science, 2022) can be followed below.

Like-named read-outs stand apart in the source and are kept apart here. Where a SMILES comes first, the peptide text is derived from it. [ ]: non-standard residue; d: D form. ξ: configuration not given here. Phe(4-NO2) = N[C@@H](Cc1ccc([N+](=O)[O-])cc1)C(=O)O; ξAla(4-thiazolyl) = NC(Cc1cscn1)C(=O)O; pS = N[C@@H](COP(=O)(O)O)C(=O)O; β3hS = N[C@@H](CO)CC(=O)O; Nva = CCC[C@H](N)C(=O)O; ξβ3hS = NC(CO)CC(=O)O; βAla = NCCC(=O)O

In this experiment the target is T1, 14-3-3γ (Homo sapiens, UniProt P61981).
T1 construct: made in house; host or cells: E. coli NiCo21 (DE3)
T1 sequence (P61981 1-247): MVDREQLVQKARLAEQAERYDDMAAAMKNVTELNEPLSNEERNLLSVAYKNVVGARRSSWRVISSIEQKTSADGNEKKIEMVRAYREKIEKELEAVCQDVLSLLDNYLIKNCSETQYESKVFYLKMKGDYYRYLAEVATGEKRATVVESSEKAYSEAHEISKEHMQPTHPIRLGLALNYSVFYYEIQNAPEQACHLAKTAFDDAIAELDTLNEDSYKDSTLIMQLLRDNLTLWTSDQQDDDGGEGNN
Nature of the experiment: Isothermal titration calorimetry (ITC) of 14-3-3 binding to peptide. Particulars: for ΔH (ITC) / -TΔS (ITC) / ΔG (ITC) / KD (ITC) / ΔG / ΔH / -TΔS / Kd: 25 °C; for Kd: Table S6 (unit as in Table S5). How it is done:
14-3-3γ protein expression (FP/ITC experiments)
A pPROEX HTb expression vector encoding the human 14-3-3 protein gamma (14-3-3γ) with an N-terminal his6-tag was transformed by heat shock into NiCo21 (DE3) competent cells. Single colonies were cultured in 50 mL LB medium (100 µg/mL ampicillin). After overnight incubation at 37 °C, cultures were transferred to 2 L TB media (100 µg/mL ampicillin, 1 mM MgCl2) and incubated at 37 °C until an OD600 nm of 0.8-1.2 was reached. Protein expression was then induced with 0.4 mM isopropyl-β-d-thiogalactoside (IPTG), and cultures were incubated overnight at 18 °C. Cells were harvested by centrifugation (8600 rpm, 20 minutes, 4 °C) and resuspended in lysis buffer (50 mM Hepes, pH 8.0, 300 mM NaCl, 12.5 mM imidazole, 5 mM MgCl2, 2 mM βME) containing cOmplete™ EDTA-free Protease Inhibitor Cocktail tablets (1 tablet/100 ml lysate) and benzonase (1 µl/100 ml). After lysis using a C3 Emulsiflex-C3 homogenizer (Avestin), the cell lysate was cleared by centrifugation (20000 rpm, 30 minutes, 4 °C) and purified using Ni2+-affinity chromatography (Ni-NTA superflow cartridges, Qiagen).
Typically two 5 mL columns (flow 5 mL/min) were used for a 2 L culture in which the lysate was loaded on the column washed with 10 CV wash buffer (50 mM Hepes, pH 8.0, 300 mM NaCl, 25 mM imidazole, 2 mM βME) and eluted in several fractions (2-4 CV) of elution buffer (50 mM Hepes, pH 8.0, 300 mM NaCl, 250 mM imidazole, 2 mM βME). Fractions containing the 14-3-3 protein were combined and dialyzed into 25 mM HEPES pH 8.0, 100 mM NaCl, 10 mM MgCl2, 500 µM TCEP. […]
The peptides 1 and 2a-d were synthesized on 50 µmol scale on a Rink amide MBHA resin (Novabiochem, 0.52 mmol/g loading) using an automated Intavis MultiPep RSi peptide synthesizer.
Deprotection was performed twice per cycle with 20% v/v piperidine in DMF for 8 minutes. Fmoc-protected amino acids were mixed in 5 equivalents of HBTU and 9 equivalents of DIPEA in DMF, and coupled to the resin. With the exception of phosphoserine, which was coupled once for 60 minutes, all amino acids were coupled to the resin twice for 30 minutes. Capping of unreacted amino acids was performed with a mixture of acetic anhydride/pyridine/DMF (1:1:3) for 5 minutes. βAla was incorporated as a spacer between the sequence and Lys(Alloc), to which a FITC fluorophore will be coupled for fluorescence anisotropy studies.
The peptides 1 and 2e-i were synthesized manually on a 50 µmol scale using Rink amide MBHA resin (Novabiochem, 0.52 mmol/g loading) via Fmoc based solid phase peptide synthesis. […]
(lex: 485 ± 20 nm; lem: 535 ± 25 nm; mirror: Dichroic 510; flashes: 20; integration time: 50 ms; settle time:
0 ms; gain: optimal; and Z-position: calculated from well). […]
Data was obtained and averaged based on two
To determine the cooperativity parameters from the 2D-titration of 14-3-3/ChREBP/2d (as described above) we have used the general framework for straightforward model construction of multi-component thermodynamic equilibrium systems as described by Geertjens et al. (2021).10 This general platform generates a model to describe multi-component equilibrium systems when given a system description.
In our case we gave the following system description: […]
α (with 95% confidence interval) and the error-landscape of the determine parameters.
Fluorescence anisotropy (FA) – Selectivity study: Peptides representing 14-3-3 binding partners (including ChREBP) were titrated in a 2-fold dilution series (starting at 100 µM) to 20 nM of fluorescein-labeled peptide 2d in presence and absence of, respectively, 2 µM 14-3-3γ in FA buffer (10 mM HEPES pH 7.4, 150 mM NaCl, 0.1% (v/v) Tween20, 0.1% (w/v) BSA). Dilution series were made in a polystyrene (non-binding) low-volume Corning Black Round Bottom 384-well plates (Corning 4514 or 4511).
Measurements were performed directly after plate preparation, using a Tecan Infinite F500 plate reader at room temperature (lex: 485 ± 20 nm; lem: 535 ± 25 nm; mirror: Dichroic 510; flashes: 20; integration […]

[1] abbreviates: Table S6 (unit given in Fig. 4 legend), ITC, average of two runs.
The mark [2] stands for this setting: Table S6, ITC, average of two runs.
The mark [3] stands for this setting: Table S5, ΔG minus ΔG of peptide 1, ITC, first unlabelled line (replicate 1).
[4] abbreviates: Table S5, ΔG minus ΔG of peptide 1, ITC, second unlabelled line (replicate 2).
The mark [5] stands for this setting: Table S5, ΔG of peptide minus ΔG of peptide 1, ITC, mean of n = 2.
Where [6] appears, read: ITC, average of two runs, read-out: Kd.

For the compound `CCC[C@H](NC(=O)[C@H](N)CCCCN)C(=O)N[C@@H](Cc1ccc([N+](=O)[O-])cc1)C(=O)NC(Cc1cscn1)C(=O)N[C@@H](COP(=O)(O)O)C(=O)N[C@@H](Cc1ccc([N+](=O)[O-])cc1)C(=O)NC(CO)CC(=O)NCCC(=O)N[C@@H](Cc1ccc([N+](=O)[O-])cc1)C(=O)N[C@@H](CCCCN)C(N)=O` (stereo partly drawn) [compound 1] (H-[dK][Nva][Phe(4-NO2)][ξAla(4-thiazolyl)][pS][Phe(4-NO2)][ξβ3hS][βAla][Phe(4-NO2)]K-NH2), under “ITC”, the “free binding energy ΔG (ITC)” value is -10.0 kcal/mol. The “ΔH (ITC)” value (Table S1 (unit given in Fig. 4 legend), ITC, mean of n = 2) was -10.7 kcal/mol; the “ΔH (ITC)” value (Table S1, ITC, replicate 1) is -11.0 kcal/mol; the “ΔH (ITC)” value (Table S1, ITC, replicate 2) is -10.5 kcal/mol. The “-TΔS (ITC)” value (Table S1, ITC, mean of n = 2) was determined as 0.7 kcal/mol; the “-TΔS (ITC)” value (Table S1, ITC, replicate 1) was 0.9 kcal/mol; the “-TΔS (ITC)” value (Table S1, ITC, replicate 2) turned out to be 0.4 kcal/mol. Also, the “ΔG (ITC)” value was -10.0 kcal/mol (Table S1, ITC, mean of n = 2); -10.0 kcal/mol (Table S1, ITC, replicate 1); -10.0 kcal/mol (Table S1, ITC, replicate 2). For the same compound, the “KD (ITC)” value by setting is: (Table S1, ITC, replicate 1) 44.7 nM; (Table S1, ITC, replicate 2) 45.3 nM. Moreover, the ΔG (Table S5, ITC, mean of n = 2) was -10.0 kcal/mol; the ΔG (Table S5, ITC, replicate 1) is listed as -10.0 kcal/mol; the ΔG (Table S5, ITC, replicate 2) is recorded as -10.0 kcal/mol; the ΔG under setting [2] was -10,03 kcal mol^-1; the ΔG (Table S6, ITC, run 1) was -10,03 kcal mol^-1; the ΔG (Table S6, ITC, run 2) is listed as -10,02 kcal mol^-1. Also, the ΔH runs as follows: under setting [1], -10,71 kcal mol^-1; (Table S6, ITC, run 1) -10,96 kcal mol^-1; (Table S6, ITC, run 2) -10,45 kcal mol^-1. The “-TΔS” value by setting is: under setting [2], 0,68 kcal mol^-1; (Table S6, ITC, run 1) 0,933 kcal mol^-1; (Table S6, ITC, run 2) 0,426 kcal mol^-1.

Turning to `CCC[C@H](NC(=O)[C@H](N)CCCCN)C(=O)N[C@@H](Cc1ccc([N+](=O)[O-])cc1)C(=O)NC(Cc1cscn1)C(=O)N[C@@H](COP(=O)(O)O)C(=O)N[C@@H](Cc1ccccc1)C(=O)N[C@@H](CO)CC(=O)NCCC(=O)N[C@@H](Cc1ccc([N+](=O)[O-])cc1)C(=O)N[C@@H](CCCCN)C(N)=O` (stereo partly drawn) [4b] (H-[dK][Nva][Phe(4-NO2)][ξAla(4-thiazolyl)][pS]F[β3hS][βAla][Phe(4-NO2)]K-NH2; N-terminus and C-terminus assumed), the “Fold change to 1” value by setting is: (Table S5, ITC Kd / Kd of peptide 1, first unlabelled line (replicate 1)) 0.6; (Table S5, ITC Kd / Kd of peptide 1, second unlabelled line (replicate 2)) 0.8; (Table S5, ITC Kd of peptide divided by Kd of peptide 1, mean of n = 2) 0.7. The ΔG is recorded as -10.2 kcal/mol (Table S5, ITC, mean of n = 2); -10.3 kcal/mol (Table S5, ITC, replicate 1); -10.1 kcal/mol (Table S5, ITC, replicate 2); -10,24 kcal mol^-1 under setting [2]; -10,34 kcal mol^-1 (Table S6, ITC, run 1); -10,13 kcal mol^-1 (Table S6, ITC, run 2). In addition, the “ΔΔG to 1” value is on record as -0.3 kcal/mol under setting [3], -0.1 kcal/mol under setting [4] and -0.2 kcal/mol under setting [5]. The Kd is, setting by setting: under setting [6], 31.9 nM; (ITC, run 1) 2,62E-08 M; (ITC, run 2) 3,76E-08 M. Also, the ΔH is on record as -7,40 kcal mol^-1 under setting [1]; -8,024 kcal mol^-1 (Table S6, ITC, run 1); -6,783 kcal mol^-1 (Table S6, ITC, run 2). Moreover, the “-TΔS” value runs as follows: under setting [2], -2,87 kcal mol^-1; (Table S6, ITC, run 1) -2,391 kcal mol^-1; (Table S6, ITC, run 2) -3,345 kcal mol^-1.

Regarding `CCC[C@H](NC(=O)[C@H](N)CCCCN)C(=O)N[C@@H](Cc1ccc([N+](=O)[O-])cc1)C(=O)NC(Cc1cscn1)C(=O)N[C@@H](COP(=O)(O)O)C(=O)N[C@@H](Cc1ccc([N+](=O)[O-])cc1)C(=O)N[C@@H](CO)CC(=O)NCCC(=O)N[C@@H](Cc1ccc(O)cc1)C(=O)N[C@@H](CCCCN)C(N)=O` (stereo partly drawn) [5a] (H-[dK][Nva][Phe(4-NO2)][ξAla(4-thiazolyl)][pS][Phe(4-NO2)][β3hS][βAla]YK-NH2; N-terminus and C-terminus assumed), the ΔG reads like this: (Table S5, ITC, mean of n = 2) -7.8 kcal/mol; (Table S5, ITC, replicate 1) -7.9 kcal/mol; (Table S5, ITC, replicate 2) -7.6 kcal/mol; under setting [2], -7,78 kcal mol^-1; (Table S6, ITC, run 1) -7,925 kcal mol^-1; (Table S6, ITC, run 2) -7,626 kcal mol^-1. Further, the “ΔΔG to 1” value is, setting by setting: under setting [3], 2.1 kcal/mol; under setting [4], 2.4 kcal/mol; under setting [5], 2.2 kcal/mol. The Kd reads like this: under setting [6], 2060 nM; (ITC, run 1) 1,55E-06 M; (ITC, run 2) 2,57E-06 M. For the same compound, the ΔH under setting [1] is listed as -5,21 kcal mol^-1; the ΔH (Table S6, ITC, run 1) is reported as -6,091 kcal mol^-1; the ΔH (Table S6, ITC, run 2) is listed as -4,328 kcal mol^-1. Besides, the “-TΔS” value was -2,57 kcal mol^-1 under setting [2]; -1,834 kcal mol^-1 (Table S6, ITC, run 1); -3,299 kcal mol^-1 (Table S6, ITC, run 2).
